± gives the standard deviation of the averaged measurements.

A short description of this data set: TIMS collisional cross section (CCS, N2) of the lipid ion; higher = larger ion cross section. The note with it: ionization mode: positive, one isomer drawn.

With `CCCCCCCCCCCCC/C=C/[C@@H](O)[C@H](CO)NC(=O)CCCCCCCCCCCCCCCCCCCCCCC` [Cer d18:1_24:0@] (ion (formula + adduct): [C42H83NO3+H] 1+), the “TIMS collisional cross section” value is, setting by setting: (sample type: Liver) 281.2 Å²; (sample type: plasma) 281.1 Å².
Take `CC/C=C\C/C=C\C/C=C\C/C=C\C/C=C\C/C=C\CCC(=O)OC[C@H](COP(=O)([O-])OCC[N+](C)(C)C)OC(=O)CC/C=C\C/C=C\C/C=C\C/C=C\C/C=C\C/C=C\CC` [PC 22:6_22:6] (ion (formula + adduct): [C52H80NO8P+H] 1+): the “TIMS collisional cross section” value (sample type: HeLa) is listed as 298.6 Å².
Turning to `CCCCCCCC/C=C\CCCCCCCC(=O)OC[C@@H](COC(=O)CCCCCCCCCCCCC)OC(=O)CCCCCCCCCCCCCCC` [TG 14:0_16:0_18:1] (ion (formula + adduct): [C51H96O6+NH4] 1+), the “TIMS collisional cross section” value (sample type: HeLa) stood at 311.9 ± 0.14 Å², the “TIMS collisional cross section” value (sample type: Liver) was found to be 312.4 Å² and the “TIMS collisional cross section” value (sample type: plasma) is 312.07 ± 0.22 Å².
With `CC/C=C\C/C=C\C/C=C\C/C=C\C/C=C\C/C=C\CCC(=O)OC[C@@H](COC(=O)CCCCCCC/C=C\C/C=C\CCCCC)OC(=O)CCCCC/C=C\C/C=C\C/C=C\C/C=C\CCCCC` [TG 18:2_22:4_22:6] (ion (formula + adduct): [C65H102O6+NH4] 1+), the “TIMS collisional cross section” value (sample type: Liver) turned out to be 335.6 Å².
With `CCCCCC/C=C\CCCCCCCC(=O)O[C@H](COC(=O)CCCCCCCCCCCCC)COC(=O)CCCCCCCCCCCCCCCC` [TG 14:0_16:1_17:0] (ion (formula + adduct): [C50H94O6+NH4] 1+), the “TIMS collisional cross section” value by setting is: (sample type: HeLa) 309.6 Å²; (sample type: plasma) 309 Å².
Regarding `CCCCCC/C=C\CCCCCCCC(=O)O[C@@H](CO)COC(=O)CCCCCCCCCCCCC` [DG 14:0_16:1_0:0] (ion (formula + adduct): [C33H62O5+NH4] 1+), the “TIMS collisional cross section” value (sample type: HeLa) is 248.3 Å².
For `CCCCCCCCCCCCCCCCCC(=O)O[C@H](CO)COP(=O)([O-])OCC[N+](C)(C)C` [LPC 18:0] (ion (formula + adduct): [C26H54NO7P+H] 1+), the “TIMS collisional cross section” value (sample type: HeLa) amounted to 237.1 Å² and the “TIMS collisional cross section” value (sample type: plasma) came to 238.4 Å².
Regarding `CCCCC/C=C\C/C=C\C/C=C\C/C=C\CCCCCC(=O)O[C@H](CO/C=C\CCCCCCCCCCCCCC)COP(=O)(O)OCCN` [PE P- 16:0@_22:4] (ion (formula + adduct): [C43H78NO7P+H] 1+), the “TIMS collisional cross section” value reads like this: (sample type: Liver) 281.6 Å²; (sample type: plasma) 281.6 Å².
With `CCCCC/C=C\C/C=C\CCCCCCCC(=O)OC[C@@H](COC(=O)CCCCCCC/C=C\CCCCCC)OC(=O)CCCCCCC/C=C\CCCCCCCC` [TG 16:1_18:1_18:2] (ion (formula + adduct): [C55H98O6+NH4] 1+), the “TIMS collisional cross section” value came to 318.2 Å² (sample type: HeLa), 317.35 ± 0.35 Å² (sample type: Liver) and 317.4 ± 0.42 Å² (sample type: plasma).
Turning to `CCCCC/C=C\C/C=C\C/C=C\C/C=C\CCCC(=O)O[C@H](COC(=O)CCCCCCCCC/C=C\CCCCCCCC)COP(=O)(O)OCCN` [PE 20:1_20:4] (ion (formula + adduct): [C45H80NO8P+H] 1+), where the note is “sample type: Liver”, the “TIMS collisional cross section” value was 287.2 Å².
As for `CCCCCCCC/C=C\CCCCCCCCCC(=O)O[C@H](COC(=O)CCCCCCC/C=C\CCCCCCCC)COP(=O)(O)OCCN` [PE 18:1_20:1@] (ion (formula + adduct): [C43H82NO8P+H] 1+), for the setting “sample type: Liver”, the “TIMS collisional cross section” value came out at 285.5 Å².
For `CCCCC/C=C\C/C=C\C/C=C\C/C=C\CCCC(=O)OC[C@@H](COC(=O)CCCCCCC/C=C\C/C=C\CCCCC)OC(=O)CCCCCCC/C=C\C/C=C\CCCCC` [TG 18:2_18:2_20:4] (ion (formula + adduct): [C59H98O6+NH4] 1+), the “TIMS collisional cross section” value (sample type: Liver) is 323.3 Å².
Turning to `CCCCCCCCCCCCCCCC(=O)OC[C@H](COP(=O)(O)OCCN)OC(=O)CCCCCCCCCCCCC` [PE 16:0_14:0@] (ion (formula + adduct): [C35H70NO8P+H] 1+), for the setting “sample type: HeLa”, the “TIMS collisional cross section” value turned out to be 267.4 Å².
In the case of `CCCCCCCCCCCCCCCCCCCCCC(=O)OC[C@@H](COC(=O)CCCCCCCCCCCCCCCCC)OC(=O)CCCCCCCCCCCCCCCCCCCC` [TG 18:0_21:0_22:0] (ion (formula + adduct): [C64H124O6+NH4] 1+), the “TIMS collisional cross section” value reads like this: (sample type: Liver) 351.7 Å²; (sample type: plasma) 352.7 Å².
Taken in the same sequence, the figures for `CCCCC/C=C\C/C=C\C/C=C\CCCCC(=O)O[C@H](COC(=O)CCCCCCC/C=C\C/C=C\CCCCC)COP(=O)([O-])OCC[N+](C)(C)C` [PC 18:2_18:3@] (ion (formula + adduct): [C44H78NO8P+H] 1+) were 289.9 Å² and 289.3 Å².
`CCCCCC/C=C\CCCCCCCC(=O)OC[C@H](COP(=O)([O-])OCC[N+](C)(C)C)OC(=O)CCCCCCC/C=C\CCCCCCC` [PC 16:1_17:1] (ion (formula + adduct): [C41H78NO8P+H] 1+): where the note is “sample type: HeLa”, the “TIMS collisional cross section” value turned out to be 281.9 Å².
For `CCCCC/C=C\C/C=C\C/C=C\CCCCCCC(=O)O[C@H](COC(=O)CCCCCCCCCCCCCCCCCC)COP(=O)([O-])OCC[N+](C)(C)C` [PC 19:0@_20:3] (ion (formula + adduct): [C47H88NO8P+H] 1+), under “sample type: Liver”, the “TIMS collisional cross section” value is given as 299.8 Å².
With `CCCCCCCC/C=C\CCCCCCCC(=O)OC[C@@H](COC(=O)CCCCCCCCCCCC)OC(=O)CCCCCCCCCCCCCCC` [TG 13:0_16:0_18:1] (ion (formula + adduct): [C50H94O6+NH4] 1+), the “TIMS collisional cross section” value (sample type: plasma) is listed as 309.5 Å².
Regarding `CCCCCCCCCCCCCCCCCCCCCCCC(=O)OC[C@@H](O)COP(=O)([O-])OCC[N+](C)(C)C` [LPC 24:0] (ion (formula + adduct): [C32H66NO7P+H] 1+), the “TIMS collisional cross section” value (sample type: HeLa) is 258.5 Å², the “TIMS collisional cross section” value (sample type: Liver) is recorded as 258.9 Å² and the “TIMS collisional cross section” value (sample type: plasma) was 259.1 Å².
Regarding `CC/C=C\C/C=C\C/C=C\C/C=C\C/C=C\C/C=C\CCC(=O)OC[C@@H](COC(=O)CCCCCCC/C=C\CCCCCCCC)OC(=O)CCCCCCCCCCC/C=C\CCCCCCCC` [TG 18:1_22:1_22:6] (ion (formula + adduct): [C65H110O6+NH4] 1+), for the setting “sample type: Liver”, the “TIMS collisional cross section” value is 342.5 Å².
`CCCCC/C=C\C/C=C\CCCCCCCC(=O)O[C@H](COC(=O)CCCCCCC/C=C\CCCCCCCC)COP(=O)(O)OCCN` [PE 18:1_18:2] (ion (formula + adduct): [C41H76NO8P+H] 1+): the “TIMS collisional cross section” value (sample type: HeLa) is 275.7 Å² and the “TIMS collisional cross section” value (sample type: Liver) was 276.1 Å².
`CCCCC/C=C\C/C=C\CCCCCCCCCCCC(=O)O[C@H](COC(=O)CCCCCCC/C=C\CCCCCCCC)COP(=O)([O-])OCC[N+](C)(C)C` [PC 18:1_22:2@] (ion (formula + adduct): [C48H90NO8P+H] 1+): the “TIMS collisional cross section” value (sample type: HeLa) was determined as 302.4 Å².
Take `CCCCC/C=C\C/C=C\C/C=C\C/C=C\CCCCCC(=O)OC[C@@H](O)COP(=O)(O)OCCN` [LPE 22:4] (ion (formula + adduct): [C27H48NO7P+H] 1+): the “TIMS collisional cross section” value was 223.8 Å² (sample type: HeLa) and 223.6 Å² (sample type: plasma).

The record behind these values is the supplement of paper PMC6965134.
